This is an account of results in patent publication US10781204B2, “TYK2 inhibitors and uses thereof” (Nimbus Lakshmi, Inc., priority 2015, dated 2020).

One experiment concerns the target TYK2 (Homo sapiens (Human), UniProt P29597). Put plainly: Tyk2 radioactive kinase assay. In kind it is biochemical. The following applies: ATP 10 μM. As to the method: (§1) Peptide substrate, [KKSRGDYMTMQIG], (20 μM) is prepared in reaction buffer (20 mM Hepes pH 7.5, 10 mM MgCl2, 1 mM EGTA, 0.02% Brij35, 0.02 mg/mL BSA, 0.1 mM […], 2 mM DTT, 1% DMSO. TYK2 (Invitrogen) kinase is added, followed by compounds in DMSO. ^33PATP is added to initiate the reaction with ATP at 10 μM. Kinase reaction is incubated for 120 min at room temp and reactions are spotted onto P81 ion exchange paper (Whatman #3698-915), and then washed extensively in 0.75% phosphoric acid, prior to reading the radioactivity counts. For JAK2 (Invitrogen) kinase assay the peptide substrate poly[Glu:Tyr] (4:1), 0.2 mg/ml is used, in the reaction carried out the same as for TYK2.

Another experiment deals with JAK2 (Homo sapiens (Human), UniProt O60674). Put plainly: JAK2 radioactive kinase assay. The format is biochemical. Conditions: ATP 10 μM. As to the method: as §1
The subject of experiment [1] is Tyk2-pSTAT4 (IL-12 induced pSTAT4). Put plainly: IL-12 induced pSTAT4 in human PBMC. In kind it is cell-based. The following applies: Homo sapiens, PBMC, 0.5 h, 1.7 ng/mL IL-12, 30 minutes. As to the method: Human PBMC are isolated from buffy coat and are stored frozen for assays as needed. Cells for assay are thawed and resuspended in complete media containing serum, then cells are diluted to 1.67 E6 cells/ml so that 120 ul per well is 200,000 cells. 15 ul of compound or DMSO is added to the well at the desired concentrations and incubated at 1 hr at 37 C. 15 ul of stimulus (final concentration of 1.7 ng/mL IL-12) is added for 30 minutes prior to pSTAT4 and total STAT4 analysis using cell lysates prepared and analyzed by MSD reagents as per manufacturer protocol. The final DMSO concentration of compound in the assay is 0.1%.

Sequence of JAK2 (O60674 whole entry): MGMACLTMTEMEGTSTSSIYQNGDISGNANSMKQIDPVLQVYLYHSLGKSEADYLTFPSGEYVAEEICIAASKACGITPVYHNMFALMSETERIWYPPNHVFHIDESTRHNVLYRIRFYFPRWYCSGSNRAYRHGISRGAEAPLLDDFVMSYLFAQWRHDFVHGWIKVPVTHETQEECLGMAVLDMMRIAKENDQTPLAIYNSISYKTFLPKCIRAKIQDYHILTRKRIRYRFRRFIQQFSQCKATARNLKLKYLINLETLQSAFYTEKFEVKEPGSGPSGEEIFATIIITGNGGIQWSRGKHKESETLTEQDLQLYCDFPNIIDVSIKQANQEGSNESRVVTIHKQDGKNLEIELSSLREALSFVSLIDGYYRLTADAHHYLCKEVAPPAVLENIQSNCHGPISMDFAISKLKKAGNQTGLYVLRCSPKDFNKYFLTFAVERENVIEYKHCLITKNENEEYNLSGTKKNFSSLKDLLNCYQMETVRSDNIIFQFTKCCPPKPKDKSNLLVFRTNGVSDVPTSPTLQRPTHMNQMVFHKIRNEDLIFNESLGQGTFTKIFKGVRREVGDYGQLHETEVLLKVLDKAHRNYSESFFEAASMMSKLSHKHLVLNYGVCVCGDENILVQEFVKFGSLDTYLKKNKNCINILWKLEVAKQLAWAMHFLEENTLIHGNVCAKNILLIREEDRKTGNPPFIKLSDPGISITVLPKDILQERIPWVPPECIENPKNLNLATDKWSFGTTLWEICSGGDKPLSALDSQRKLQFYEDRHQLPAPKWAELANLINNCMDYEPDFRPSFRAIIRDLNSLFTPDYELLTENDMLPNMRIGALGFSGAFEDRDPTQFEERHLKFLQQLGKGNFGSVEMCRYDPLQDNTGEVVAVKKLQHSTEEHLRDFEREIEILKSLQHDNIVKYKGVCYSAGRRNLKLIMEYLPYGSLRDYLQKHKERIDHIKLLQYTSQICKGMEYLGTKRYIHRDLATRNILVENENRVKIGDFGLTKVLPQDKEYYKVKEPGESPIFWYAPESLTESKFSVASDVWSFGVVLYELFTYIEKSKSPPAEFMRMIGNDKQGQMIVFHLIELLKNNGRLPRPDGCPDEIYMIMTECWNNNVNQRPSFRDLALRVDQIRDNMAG
Sequence of TYK2 (P29597 whole entry): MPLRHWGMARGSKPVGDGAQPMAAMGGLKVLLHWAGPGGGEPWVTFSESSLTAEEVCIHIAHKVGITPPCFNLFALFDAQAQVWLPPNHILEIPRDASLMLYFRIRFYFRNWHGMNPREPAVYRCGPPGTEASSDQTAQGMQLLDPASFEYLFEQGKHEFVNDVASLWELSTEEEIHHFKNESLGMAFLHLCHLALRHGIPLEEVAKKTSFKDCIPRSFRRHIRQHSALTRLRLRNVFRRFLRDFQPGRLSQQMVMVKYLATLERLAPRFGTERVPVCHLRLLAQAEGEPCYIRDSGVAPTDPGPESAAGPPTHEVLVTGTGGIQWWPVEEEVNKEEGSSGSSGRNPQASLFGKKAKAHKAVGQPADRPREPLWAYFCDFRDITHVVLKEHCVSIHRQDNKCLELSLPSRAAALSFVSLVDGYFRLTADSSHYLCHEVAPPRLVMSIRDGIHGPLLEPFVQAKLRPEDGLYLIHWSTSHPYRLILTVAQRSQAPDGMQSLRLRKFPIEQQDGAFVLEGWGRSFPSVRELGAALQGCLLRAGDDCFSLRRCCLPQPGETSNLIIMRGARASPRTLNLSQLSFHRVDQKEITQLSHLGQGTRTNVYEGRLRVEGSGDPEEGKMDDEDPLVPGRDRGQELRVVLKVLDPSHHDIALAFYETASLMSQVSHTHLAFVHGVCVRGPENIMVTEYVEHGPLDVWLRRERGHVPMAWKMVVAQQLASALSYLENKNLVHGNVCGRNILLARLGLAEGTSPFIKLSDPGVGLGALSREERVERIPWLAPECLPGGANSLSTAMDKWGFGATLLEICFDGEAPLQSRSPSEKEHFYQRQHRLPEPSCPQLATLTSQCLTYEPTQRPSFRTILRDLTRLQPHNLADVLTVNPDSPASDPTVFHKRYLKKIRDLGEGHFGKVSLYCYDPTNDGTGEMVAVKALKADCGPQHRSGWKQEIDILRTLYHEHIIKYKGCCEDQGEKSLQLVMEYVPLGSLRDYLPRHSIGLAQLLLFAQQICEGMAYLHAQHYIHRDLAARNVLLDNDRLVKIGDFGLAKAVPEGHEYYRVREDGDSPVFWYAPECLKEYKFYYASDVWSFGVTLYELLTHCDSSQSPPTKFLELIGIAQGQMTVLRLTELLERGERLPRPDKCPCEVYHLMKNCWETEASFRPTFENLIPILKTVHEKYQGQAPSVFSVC

In the case of `CC(C)n1cc(-c2cc(-c3c(F)cccc3C#N)nc3c2C(=O)NC3)cn1` [I-61, 3-fluoro-2-(4-(1-isopropyl-1H-pyrazol-4-yl)-5-oxo-6,7-dihydro-5H-pyrrolo[3,4-b]pyridin-2-yl)benzonitrile], the Ki fell in the range of 0.1 to 10 nM at TYK2 and 10 to 100 nM on JAK2. In addition, the EC50 in experiment [1] is 100 to 2000 nM.

Turning to `N#Cc1cccc(F)c1-c1cc(-n2ccc(N3CCC[C@@H](N)C3)n2)c2c(n1)CNC2=O` [I-73, (R)-2-(4-(3-(3-aminopiperidin-1-yl)-1H-pyrazol-1-yl)-5-oxo-6,7-dihydro-5H-pyrrolo[3,4-b]pyridin-2-yl)-3-fluorobenzonitrile], the Ki at TYK2 and on JAK2 was 0.1 to 10 nM in each case. In addition, the EC50 in experiment [1] is 100 to 2000 nM.

As to `N#Cc1cccc(F)c1-c1cc(-n2cc3c(n2)CCCN3)c2c(n1)CNC2=O` [I-77, 3-fluoro-2-(5-oxo-4-(4,5,6,7-tetrahydro-2H-pyrazolo[4,3-b]pyri-din-2-yl)-6,7-dihydro-5H-pyrrolo[3,4-b]pyridin-2-yl)benzonitrile], the Ki at TYK2 is 0.1 to 10 nM; at JAK2, 10 to 100 nM. The EC50 in experiment [1] fell in the range of 30 to 100 nM.

Take `N#Cc1cccc(F)c1-c1cc(-n2ccc(N3CCCC(CO)C3)n2)c2c(n1)CNC2=O` (centres unmarked) [I-86, 3-fluoro-2-(4-(3-(3-(hydroxymethyl)piperidin-1-yl)-1H-pyrazol-1-yl)-5-oxo-6,7-dihydro-5H-pyrrolo[3,4-b]pyridin-2-yl)benzonitrile]: the inhibitory constant (Ki) was in the range of 0.1 to 10 nM at TYK2 and 10 to 100 nM at JAK2. Also, the EC50 in experiment [1] was in the range of 100 to 2000 nM.

As for `C[C@]1(O)CCN(c2ccn(-c3cc(-c4c(F)cccc4C#N)nc4c3C(=O)NC4)n2)C1` [I-93, (S)-3-fluoro-2-(4-(3-(3-hydroxy-3-methylpyrrolidin-1-yl)-1H-pyrazol-1-yl)-5-oxo-6,7-dihydro-5H-pyrrolo[3,4-b]pyridin-2-yl)benzonitrile], the inhibition constant (Ki) was in the range of 0.1 to 10 nM at TYK2 and 10 to 100 nM on JAK2. This compound also displayed an EC50 in experiment [1] of 30 to 100 nM.

With `N#Cc1cccc(F)c1-c1cc(-n2ccc(N3CC[C@@H](O)[C@@H](O)C3)n2)c2c(n1)CNC2=O` [I-105, 2-(4-(3-((3S,4R)-3,4-dihydroxypiperidin-1-yl)-1H-pyrazol-1-yl)-5-oxo-6,7-dihydro-5H-pyrrolo[3,4-b]pyridin-2-yl)-3-fluorobenzonitrile], the values for the Ki at TYK2 and at JAK2 were 0.1 to 10 nM and 10 to 100 nM, respectively. Also, the EC50 in experiment [1] was in the range of 100 to 2000 nM.

Regarding `N#Cc1cccc(F)c1-c1cc(-n2ccc(N3CC[C@@H](C#N)C3)n2)c2c(n1)CNC2=O` [I-127, (R)-1-(1-(2-(2-cyano-6-fluorophenyl)-5-oxo-6,7-dihydro-5H-pyrrolo[3,4-b]pyridin-4-yl)-1H-pyrazol-3-yl)pyrrolidine-3-carbonitrile], the Ki at TYK2 is 0.1 to 10 nM; on JAK2 it was 10 to 100 nM. The compound further gave an EC50 in experiment [1] of 30 to 100 nM.

Take `N#Cc1cccc(F)c1-c1cc(-n2ccc(N3CC[C@H](C#N)C3)n2)c2c(n1)CNC2=O` [I-128, (S)-1-(1-(2-(2-cyano-6-fluorophenyl)-5-oxo-6,7-dihydro-5H-pyrrolo[3,4-b]pyridin-4-yl)-1H-pyrazol-3-yl)pyrrolidine-3-carbonitrile]: the Ki fell in the range of 0.1 to 10 nM on TYK2 and 10 to 100 nM on JAK2. This compound also came in with an EC50 in experiment [1] of 30 to 100 nM.

For the compound `N#Cc1cccc(F)c1-c1cc(-n2ccc(N3CCOC[C@H](O)C3)n2)c2c(n1)CNC2=O` [I-132, (R)-3-fluoro-2-(4-(3-(6-hydroxy-1,4-oxazepan-4-yl)-1H-pyrazol-1-yl)-5-oxo-6,7-dihydro-5H-pyrrolo[3,4-b]pyridin-2-yl)benzonitrile], the values for the Ki on TYK2 and on JAK2 were 0.1 to 10 nM and 10 to 100 nM, respectively. Besides, the EC50 in experiment [1] was 100 to 2000 nM.

With `CS(=O)(=O)N[C@@H]1CCN(c2ccn(-c3cc(-c4c(F)cccc4C#N)nc4c3C(=O)NC4)n2)C1` [I-134, (R)-N-(1-(1-(2-(2-cyano-6-fluorophenyl)-5-oxo-6,7-dihydro-5H-pyrrolo[3,4-b]pyridin-4-yl)-1H-pyrazol-3-yl)pyrrolidin-3-yl)methanesulfonamide], the Ki at TYK2 and on JAK2 was 0.1 to 10 nM in each case. The same compound registered an EC50 in experiment [1] of 100 to 2000 nM.

Consider `N#Cc1cccc(F)c1-c1cc(-n2ccc(N3CCCNC(=O)C3)n2)c2c(n1)CNC2=O` [I-140, 3-fluoro-2-(5-oxo-4-(3-(3-oxo-1,4-diazepan-1-yl)-1H-pyrazol-1-yl)-6,7-dihydro-5H-pyrrolo[3,4-b]pyridin-2-yl)benzonitrile], for which the Ki at TYK2 and at JAK2 was 0.1 to 10 nM each time. Besides, in experiment [1], the EC50 was in the range of 100 to 2000 nM.

With `CO[C@@H]1CN(c2ccn(-c3cc(-c4c(F)cccc4C#N)nc4c3C(=O)NC4)n2)C[C@@H]1O` [I-154, 3-fluoro-2-(4-(3-((3S,4R)-3-hydroxy-4-methoxypyrrolidin-1-yl)-1H-pyrazol-1-yl)-5-oxo-6,7-dihydro-5H-pyrrolo[3,4-b]pyridin-2-yl)benzonitrile], the Ki at TYK2 is 0.1 to 10 nM. For the same compound, the EC50 in experiment [1] is 30 to 100 nM.

With `N#Cc1cccc(F)c1-c1cc(-n2ccc(N3CCC(F)C(O)C3)n2)c2c(n1)CNC2=O` (centres unmarked) [I-160, 3-fluoro-2-(4-(3-(4-fluoro-3-hydroxypiperidin-1-yl)-1H-pyrazol-1-yl)-5-oxo-6,7-dihydro-5H-pyrrolo[3,4-b]pyridin-2-yl)benzonitrile], the Ki on TYK2 lay in the range of 0.009 to 0.1 nM; at JAK2 it was 0.1 to 10 nM. The EC50 in experiment [1] lay within 30 to 100 nM.

For the compound `N#Cc1cccc(F)c1-c1cc(-n2ccc(N3CCC[C@@H](C(=O)N4CCCC4)C3)n2)c2c(n1)CNC2=O` [I-167, (R)-3-fluoro-2-(5-oxo-4-(3-(3-(pyrrolidine-1-carbonyl)piperidin-1-yl)-1H-pyrazol-1-yl)-6,7-dihydro-5H-pyrrolo[3,4-b]pyridin-2-yl)benzonitrile], the Ki at TYK2 and on JAK2 was 0.1 to 10 nM in each case. For the same compound, the EC50 in experiment [1] was 100 to 2000 nM.

Regarding `N#Cc1cccc(F)c1-c1cc(-n2ccc(N3C[C@@H]4OCCO[C@@H]4C3)n2)c2c(n1)CNC2=O` [I-169, 3-fluoro-2-(4-(3-((4aR,7aS)-hexahydro-6H-[1,4]dioxino[2,3-c]pyrrol-6-yl)-1H-pyrazol-1-yl)-5-oxo-6,7-dihydro-5H-pyrrolo[3,4-b]pyridin-2-yl)benzonitrile], the Ki on TYK2 and at JAK2 was 0.1 to 10 nM each time. Besides, the EC50 in experiment [1] was 30 to 100 nM.

With `N#Cc1cccc(F)c1-c1cc(-n2ccc(N3CCNC(=O)C3)n2)c2c(n1)CNC2=O` [I-175, 3-fluoro-2-(5-oxo-4-(3-(3-oxopiperazin-1-yl)-1H-pyrazol-1-yl)-6,7-dihydro-5H-pyrrolo[3,4-b]pyridin-2-yl)benzonitrile], the results for the Ki at TYK2 and on JAK2 were 0.1 to 10 nM and 100 to 1000 nM, respectively. The compound further returned an EC50 in experiment [1] of 100 to 2000 nM.

As to `C[C@@]1(O)CN(c2ccn(-c3cc(-c4c(F)cccc4C#N)nc4c3C(=O)NC4)n2)CC[C@H]1O` [I-182, 2-(4-(3-((3R,4R)-3,4-dihydroxy-3-methylpiperidin-1-yl)-1H-pyrazol-1-yl)-5-oxo-6,7-dihydro-5H-pyrrolo[3,4-b]pyridin-2-yl)-3-fluorobenzonitrile], the Ki at TYK2 and on JAK2 was 0.1 to 10 nM each time. In addition, the EC50 in experiment [1] lay within 30 to 100 nM.

On to `CC1(C)C(O)CCN1c1ccn(-c2cc(-c3c(F)cccc3C#N)nc3c2C(=O)NC3)n1` (centres unmarked) [I-187, 3-fluoro-2-(4-(3-(3-hydroxy-2,2-dimethylpyrrolidin-1-yl)-1H-pyrazol-1-yl)-5-oxo-6,7-dihydro-5H-pyrrolo[3,4-b]pyridin-2-yl)benzonitrile], for which the Ki at TYK2 fell in the range of 0.009 to 0.1 nM; at JAK2 it was 0.1 to 10 nM. This compound returned an EC50 in experiment [1] of 100 to 2000 nM.

In the case of `[2H]C1([2H])N(c2ccn(-c3cc(-c4c(F)cccc4C#N)nc4c3C(=O)NC4)n2)C([2H])([2H])C([2H])(O)C1([2H])[2H]` (centres unmarked) [I-194, 3-fluoro-2-(4-(3-(3-hydroxypyrrolidin-1-yl-2,2,3,4,4,5,5-d7)-1H-pyrazol-1-yl)-5-oxo-6,7-dihydro-5H-pyrrolo[3,4-b]pyridin-2-yl)benzonitrile], the Ki on TYK2 and on JAK2 was 0.1 to 10 nM throughout. In experiment [1], this compound had a concentration giving a half-maximal response (EC50) of 100 to 2000 nM.

`N#Cc1cccc(F)c1-c1cc(-n2ccc(N3CC[C@@](O)(C(=O)N4CCCC4)C3)n2)c2c(n1)CNC2=O` [I-197, (S)-3-fluoro-2-(4-(3-(3-hydroxy-3-(pyrrolidine-1-carbonyl)-pyrrolidin-1-yl)-1H-pyrazol-1-yl)-5-oxo-6,7-dihydro-5H-pyrrolo[3,4-b]pyridin-2-yl)benzonitrile]: the Ki was 0.1 to 10 nM on TYK2 and 10 to 100 nM at JAK2. The compound also gave an EC50 in experiment [1] of 100 to 2000 nM.

For `N#Cc1cccc(F)c1-c1cc(-n2ccc(N3CC[C@]4(C3)OC[C@@H](O)CO4)n2)c2c(n1)CNC2=O` [I-222, 3-fluoro-2-(4-(3-((5s,8s)-8-hydroxy-6,10-dioxa-2-azaspiro[4.5]decan-2-yl)-1H-pyrazol-1-yl)-5-oxo-6,7-dihydro-5H-pyrrolo[3,4-b]pyridin-2-yl)benzonitrile], the Ki was in the range of 0.1 to 10 nM on TYK2 and 10 to 100 nM at JAK2. The compound further displayed an EC50 in experiment [1] of 100 to 2000 nM.

By Ki is commonly meant a dissociation constant, usually derived from enzyme kinetics or from competition with a known ligand. As a reminder, the EC50 is the concentration giving half of the maximal effect. Read a high EC50 as lower potency in that assay.
